Reference: ChEMBL document CHEMBL1201862, “PubChem BioAssay data set” (2004)
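Method: 48-hour compound exposure of cells in 96-well plates, five concentrations, linear interpolation of endpoints. GI50 marks 50% less growth.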 Activity calls are given as the source filed them. Cut-off read from the data, not from the text of the source: active = GI50 up to about 1.1 µM and inactive = higher.

Columns and labels:
Test in all cases: DTP human tumour cell line panel, 48 h
HL-60 = test system: HL-60
SW-620 = test system: SW-620
CCRF-CEM = test system: CCRF-CEM
OVCAR-4 = test system: OVCAR-4
A549 = test system: A549
NCI-H23 = test system: NCI-H23
RPMI-8226 = test system: RPMI-8226
COLO 205 = test system: COLO 205
U-251 = test system: U-251
HOP-62 = test system: HOP-62
CAKI-1 = test system: CAKI-1
OVCAR-3 = test system: OVCAR-3
OVCAR-8 = test system: OVCAR-8
SK-MEL-2 = test system: SK-MEL-2
NCI-H522 = test system: NCI-H522
SNB-19 = test system: SNB-19
SN12C = test system: SN12C
UO-31 = test system: UO-31
SK-OV-3 = test system: SK-OV-3
Hs-578T = test system: Hs-578T

COC1=CC(=Nc2c(Cl)cc(Cl)cc2OC(=O)c2ccc([N+](=O)[O-])cc2)C=C(OC)C1=O
GI50 (HL-60): 1.83 µM (inactive)
GI50 (SW-620): 13.5 µM (inactive)
GI50 (CCRF-CEM): 2.87 µM (inactive)
GI50 (OVCAR-4): 10 µM (inactive)
GI50 (A549): 9.77 µM (inactive)
GI50 (NCI-H23): 9.12 µM (inactive)
GI50 (RPMI-8226): 5.04 µM (inactive)
GI50 (COLO 205): 17.5 µM (inactive)
GI50 (U-251): 13.8 µM (inactive)
GI50 (HOP-62): 21.5 µM (inactive)
GI50 (CAKI-1): 16.9 µM (inactive)
GI50 (OVCAR-3): 8.67 µM (inactive)
GI50 (OVCAR-8): 7.35 µM (inactive)
GI50 (SK-MEL-2): 15.8 µM (inactive)
GI50 (NCI-H522): 9.23 µM (inactive)
GI50 (SNB-19): 16.4 µM (inactive)
GI50 (SN12C): 11.8 µM (inactive)
GI50 (UO-31): 11.9 µM (inactive)
GI50 (SK-OV-3): 16.5 µM (inactive)

CC[N+](C)(CC)CCNC(=O)C(O)(c1ccccc1)c1ccccc1
GI50 (HL-60): > 100 µM (inactive)
GI50 (SW-620): > 100 µM (inactive)
GI50 (CCRF-CEM): > 100 µM (inactive)
GI50 (OVCAR-4): > 100 µM (inactive)
GI50 (A549): > 100 µM (inactive)
GI50 (NCI-H23): > 100 µM (inactive)
GI50 (RPMI-8226): > 100 µM (inactive)
GI50 (COLO 205): > 100 µM (inactive)
GI50 (U-251): > 100 µM (inactive)
GI50 (HOP-62): > 100 µM (inactive)
GI50 (CAKI-1): > 100 µM (inactive)
GI50 (OVCAR-3): > 100 µM (inactive)
GI50 (OVCAR-8): > 100 µM (inactive)
GI50 (NCI-H522): > 100 µM (inactive)
GI50 (SNB-19): > 100 µM (inactive)
GI50 (SN12C): > 100 µM (inactive)
GI50 (UO-31): > 100 µM (inactive)
GI50 (SK-OV-3): > 100 µM (inactive)

C=CCOC(=O)C1CCC(=O)N1C(=O)C(Cl)Cl (stereo unspecified)
GI50 (HL-60): > 100 µM (inactive)
GI50 (SW-620): > 100 µM (inactive)
GI50 (CCRF-CEM): > 100 µM (inactive)
GI50 (OVCAR-4): > 100 µM (inactive)
GI50 (A549): > 100 µM (inactive)
GI50 (NCI-H23): > 100 µM (inactive)
GI50 (RPMI-8226): > 100 µM (inactive)
GI50 (COLO 205): > 100 µM (inactive)
GI50 (U-251): > 100 µM (inactive)
GI50 (HOP-62): > 100 µM (inactive)
GI50 (CAKI-1): > 100 µM (inactive)
GI50 (OVCAR-3): > 100 µM (inactive)
GI50 (OVCAR-8): > 100 µM (inactive)
GI50 (SK-MEL-2): > 100 µM (inactive)
GI50 (NCI-H522): > 100 µM (inactive)
GI50 (SNB-19): > 100 µM (inactive)
GI50 (SN12C): > 100 µM (inactive)
GI50 (UO-31): > 100 µM (inactive)
GI50 (SK-OV-3): > 100 µM (inactive)

Cc1nc(-c2nc(C)c(C(=O)NN(C)C)s2)sc1C(=O)NN(C)C
GI50 (HL-60): 43 µM (inactive)
GI50 (CCRF-CEM): 31.2 µM (inactive)
GI50 (OVCAR-4): 53 µM (inactive)
GI50 (NCI-H23): > 100 µM (inactive)
GI50 (RPMI-8226): 28.8 µM (inactive)
GI50 (COLO 205): 21.7 µM (inactive)
GI50 (U-251): > 100 µM (inactive)
GI50 (HOP-62): > 100 µM (inactive)
GI50 (CAKI-1): > 100 µM (inactive)
GI50 (OVCAR-3): > 100 µM (inactive)
GI50 (OVCAR-8): > 100 µM (inactive)
GI50 (SK-MEL-2): > 100 µM (inactive)
GI50 (NCI-H522): 34.6 µM (inactive)
GI50 (SNB-19): > 100 µM (inactive)
GI50 (SN12C): > 100 µM (inactive)
GI50 (UO-31): > 100 µM (inactive)
GI50 (SK-OV-3): > 100 µM (inactive)

CCOc1ccccc1/N=C(/NC(=O)CC)SC
GI50 (HL-60): > 10 µM (inactive)
GI50 (SW-620): > 10 µM (inactive)
GI50 (CCRF-CEM): 64.6 µM (inactive)
GI50 (OVCAR-4): 85.1 µM (inactive)
GI50 (A549): > 10 µM (inactive)
GI50 (NCI-H23): 70.5 µM (inactive)
GI50 (RPMI-8226): 95.9 µM (inactive)
GI50 (COLO 205): > 10 µM (inactive)
GI50 (U-251): > 10 µM (inactive)
GI50 (HOP-62): > 10 µM (inactive)
GI50 (CAKI-1): > 10 µM (inactive)
GI50 (OVCAR-3): > 10 µM (inactive)
GI50 (OVCAR-8): 57 µM (inactive)
GI50 (SK-MEL-2): 38.7 µM (inactive)
GI50 (NCI-H522): > 10 µM (inactive)
GI50 (SNB-19): > 10 µM (inactive)
GI50 (SN12C): 65.8 µM (inactive)
GI50 (UO-31): > 10 µM (inactive)
GI50 (SK-OV-3): > 10 µM (inactive)

Cc1ccc(Nc2ccc(Nc3ccc(C)cc3S(=O)(=O)O)c3c2C(=O)c2ccccc2C3=O)c(S(=O)(=O)O)c1
GI50 (HL-60): > 100 µM (inactive)
GI50 (SW-620): > 100 µM (inactive)
GI50 (CCRF-CEM): > 100 µM (inactive)
GI50 (OVCAR-4): > 100 µM (inactive)
GI50 (A549): > 100 µM (inactive)
GI50 (RPMI-8226): > 100 µM (inactive)
GI50 (COLO 205): > 100 µM (inactive)
GI50 (U-251): > 100 µM (inactive)
GI50 (HOP-62): > 100 µM (inactive)
GI50 (CAKI-1): > 100 µM (inactive)
GI50 (OVCAR-3): > 100 µM (inactive)
GI50 (OVCAR-8): > 100 µM (inactive)
GI50 (SK-MEL-2): > 100 µM (inactive)
GI50 (NCI-H522): > 100 µM (inactive)
GI50 (SNB-19): > 100 µM (inactive)
GI50 (SN12C): > 100 µM (inactive)
GI50 (UO-31): > 100 µM (inactive)
GI50 (SK-OV-3): > 100 µM (inactive)

CC(=O)Oc1ccc2c(C)cc(=O)oc2c1OC(C)=O
GI50 (SW-620): 30.7 µM (inactive)
GI50 (CCRF-CEM): 5.4 µM (inactive)
GI50 (OVCAR-4): 46.8 µM (inactive)
GI50 (A549): 38.4 µM (inactive)
GI50 (NCI-H23): 26.9 µM (inactive)
GI50 (RPMI-8226): 24.5 µM (inactive)
GI50 (COLO 205): 42.8 µM (inactive)
GI50 (U-251): 35.2 µM (inactive)
GI50 (HOP-62): 46.5 µM (inactive)
GI50 (OVCAR-3): 40.4 µM (inactive)
GI50 (OVCAR-8): 27 µM (inactive)
GI50 (SK-MEL-2): > 100 µM (inactive)
GI50 (SNB-19): 41.3 µM (inactive)
GI50 (SN12C): 57.8 µM (inactive)
GI50 (UO-31): 26.5 µM (inactive)
GI50 (Hs-578T): 24.2 µM (inactive)
GI50 (SK-OV-3): > 100 µM (inactive)

CC1=Cc2cccc(C)c2C(=O)C1=O [O-HIBISCANONE]
GI50 (HL-60): 0.481 µM (active)
GI50 (SW-620): 1.28 µM (inactive)
GI50 (CCRF-CEM): 0.379 µM (active)
GI50 (OVCAR-4): 5.31 µM (inactive)
GI50 (A549): 6.81 µM (inactive)
GI50 (NCI-H23): 11.1 µM (inactive)
GI50 (RPMI-8226): 1.06 µM (active)
GI50 (COLO 205): 1.91 µM (inactive)
GI50 (U-251): 10.8 µM (inactive)
GI50 (HOP-62): 17.5 µM (inactive)
GI50 (CAKI-1): 16.5 µM (inactive)
GI50 (OVCAR-3): 4.37 µM (inactive)
GI50 (OVCAR-8): 5.85 µM (inactive)
GI50 (SK-MEL-2): 17.3 µM (inactive)
GI50 (NCI-H522): 4.72 µM (inactive)
GI50 (SNB-19): 19.8 µM (inactive)
GI50 (SN12C): 19.5 µM (inactive)
GI50 (UO-31): 13.9 µM (inactive)
GI50 (SK-OV-3): 18.5 µM (inactive)
